In ChEMBL document CHEMBL4346705, “(±)-trans-Dihydronarciclasine and (±)-trans-dihydrolycoricidine analogues modified in their ring A: Evaluation of their anticancer activity and a SAR study” (2019):

Tests used:
Assay type in all cases: functional
NCI-H522 = assay: Antiproliferative activity against human NCI-H522 cells assessed as cell viability at 10^-5 M incubated for 48 hrs by sulforhodamine B assay relative to control; conditions: NCI-H522, 48 h, read-out: Activity
MCF7 = assay: Antiproliferative activity against human MCF7 cells assessed as cell viability at 10^-5 M incubated for 48 hrs by sulforhodamine B assay relative to control; conditions: MCF7, 48 h, read-out: Activity
U-251 = assay: Antiproliferative activity against human U251 cells assessed as cell viability at 10^-5 M incubated for 48 hrs by sulforhodamine B assay relative to control; conditions: U-251, 48 h, read-out: Activity
A549 = assay: Antiproliferative activity against human A549 cells assessed as cell viability at 10^-5 M incubated for 48 hrs by sulforhodamine B assay relative to control; conditions: A549, 48 h, read-out: Activity
SF-268 = assay: Antiproliferative activity against human SF268 cells assessed as cell viability at 10^-5 M incubated for 48 hrs by sulforhodamine B assay relative to control; conditions: SF-268, 48 h, read-out: Activity
OVCAR-5 = assay: Antiproliferative activity against human OVCAR5 cells assessed as cell viability at 10^-5 M incubated for 48 hrs by sulforhodamine B assay relative to control; conditions: OVCAR-5, 48 h, read-out: Activity
SNB-75 = assay: Antiproliferative activity against human SNB75 cells assessed as cell viability at 10^-5 M incubated for 48 hrs by sulforhodamine B assay relative to control; conditions: SNB-75, 48 h, read-out: Activity
DU-145 = assay: Antiproliferative activity against human DU145 cells assessed as cell viability at 10^-5 M incubated for 48 hrs by sulforhodamine B assay relative to control; conditions: DU-145, 48 h, read-out: Activity
SK-OV-3 = assay: Antiproliferative activity against human SKOV3 cells assessed as cell viability at 10^-5 M incubated for 48 hrs by sulforhodamine B assay relative to control; conditions: SK-OV-3, 48 h, read-out: Activity
TK-10 = assay: Antiproliferative activity against human TK10 cells assessed as cell viability at 10^-5 M incubated for 48 hrs by sulforhodamine B assay relative to control; conditions: TK-10, 48 h, read-out: Activity
OVCAR-3 = assay: Antiproliferative activity against human OVCAR3 cells assessed as cell viability at 10^-5 M incubated for 48 hrs by sulforhodamine B assay relative to control; conditions: OVCAR-3, 48 h, read-out: Activity
LOX IMVI = assay: Antiproliferative activity against human LOXIMVI cells assessed as cell viability at 10^-5 M incubated for 48 hrs by sulforhodamine B assay relative to control; conditions: read-out: Activity
HL-60(TB) = assay: Antiproliferative activity against human HL-60(TB) cells assessed as cell viability at 10^-5 M incubated for 48 hrs by sulforhodamine B assay relative to control; conditions: HL-60, 48 h, read-out: Activity
KM12 = assay: Antiproliferative activity against human KM12 cells assessed as cell viability at 10^-5 M incubated for 48 hrs by sulforhodamine B assay relative to control; conditions: KM12, 48 h, read-out: Activity
PC-3 = assay: Antiproliferative activity against human PC3 cells assessed as cell viability at 10^-5 M incubated for 48 hrs by sulforhodamine B assay relative to control; conditions: PC-3, 48 h, read-out: Activity
NCI-H322M = assay: Antiproliferative activity against human NCI-H322M cells assessed as cell viability at 10^-5 M incubated for 48 hrs by sulforhodamine B assay relative to control; conditions: read-out: Activity
SW-620 = assay: Antiproliferative activity against human SW620 cells assessed as cell viability at 10^-5 M incubated for 48 hrs by sulforhodamine B assay relative to control; conditions: SW-620, 48 h, read-out: Activity
HOP-92 = assay: Antiproliferative activity against human HOP92 cells assessed as cell viability at 10^-5 M incubated for 48 hrs by sulforhodamine B assay relative to control; conditions: HOP-92, 48 h, read-out: Activity
OVCAR-4 = assay: Antiproliferative activity against human OVCAR4 cells assessed as cell viability at 10^-5 M incubated for 48 hrs by sulforhodamine B assay relative to control; conditions: OVCAR-4, 48 h, read-out: Activity
ACHN = assay: Antiproliferative activity against human ACHN cells assessed as cell viability at 10^-5 M incubated for 48 hrs by sulforhodamine B assay relative to control; conditions: read-out: Activity
NCI-H23 = assay: Antiproliferative activity against human NCI-H23 cells assessed as cell viability at 10^-5 M incubated for 48 hrs by sulforhodamine B assay relative to control; conditions: NCI-H23, 48 h, read-out: Activity
MOLT-4 = assay: Antiproliferative activity against human MOLT4 cells assessed as cell viability at 10^-5 M incubated for 48 hrs by sulforhodamine B assay relative to control; conditions: MOLT-4, 48 h, read-out: Activity
UACC-62 = assay: Antiproliferative activity against human UACC62 cells assessed as cell viability at 10^-5 M incubated for 48 hrs by sulforhodamine B assay relative to control; conditions: UACC-62, 48 h, read-out: Activity
M14 = assay: Antiproliferative activity against human M14 cells assessed as cell viability at 10^-5 M incubated for 48 hrs by sulforhodamine B assay relative to control; conditions: M14, 48 h, read-out: Activity
SN12C = assay: Antiproliferative activity against human SN12C cells assessed as cell viability at 10^-5 M incubated for 48 hrs by sulforhodamine B assay relative to control; conditions: read-out: Activity
HCT-15 = assay: Antiproliferative activity against human HCT15 cells assessed as cell viability at 10^-5 M incubated for 48 hrs by sulforhodamine B assay relative to control; conditions: HCT-15, 48 h, read-out: Activity
SNB-19 = assay: Antiproliferative activity against human SNB19 cells assessed as cell viability at 10^-5 M incubated for 48 hrs by sulforhodamine B assay relative to control; conditions: SNB-19, 48 h, read-out: Activity
T47D = assay: Antiproliferative activity against human T47D cells assessed as cell viability at 10^-5 M incubated for 48 hrs by sulforhodamine B assay relative to control; conditions: read-out: Activity
HT-29 = assay: Antiproliferative activity against human HT-29 cells assessed as cell viability at 10^-5 M incubated for 48 hrs by sulforhodamine B assay relative to control; conditions: HT-29, 48 h, read-out: Activity
SF-539 = assay: Antiproliferative activity against human SF539 cells assessed as cell viability at 10^-5 M incubated for 48 hrs by sulforhodamine B assay relative to control; conditions: SF-539, 48 h, read-out: Activity
UO-31 = assay: Antiproliferative activity against human UO31 cells assessed as cell viability at 10^-5 M incubated for 48 hrs by sulforhodamine B assay relative to control; conditions: UO-31, 48 h, read-out: Activity
MDA-MB-435 = assay: Antiproliferative activity against human MDA-MB-435 cells assessed as cell viability at 10^-5 M incubated for 48 hrs by sulforhodamine B assay relative to control; conditions: MDA-MB-435, 48 h, read-out: Activity

## CCOc1cc2c(c(O)c1OCC)C(=O)NC1C2CC(O)C(O)C1O (racemic)
NCI-H522
  viability at 10 µM: 92.6%
MCF7
  viability at 10 µM: 90.9%
U-251
  viability at 10 µM: 98.4%
A549
  viability at 10 µM: 92.8%
SF-268
  viability at 10 µM: 96.4%
OVCAR-5
  viability at 10 µM: 104%
SNB-75
  viability at 10 µM: 93.4%
DU-145
  viability at 10 µM: 105%
SK-OV-3
  viability at 10 µM: 98.6%
TK-10
  viability at 10 µM: 99.1%
OVCAR-3
  viability at 10 µM: 104%
LOX IMVI
  viability at 10 µM: 98.5%
HL-60(TB)
  viability at 10 µM: 102%
KM12
  viability at 10 µM: 106%
PC-3
  viability at 10 µM: 100%
NCI-H322M
  viability at 10 µM: 97.6%
SW-620
  viability at 10 µM: 112%
HOP-92
  viability at 10 µM: 78.5%
OVCAR-4
  viability at 10 µM: 103%
ACHN
  viability at 10 µM: 106%
NCI-H23
  viability at 10 µM: 102%
MOLT-4
  viability at 10 µM: 103%
UACC-62
  viability at 10 µM: 93%
M14
  viability at 10 µM: 100%
SN12C
  viability at 10 µM: 103%
HCT-15
  viability at 10 µM: 99%
SNB-19
  viability at 10 µM: 96%
T47D
  viability at 10 µM: 90.4%
HT-29
  viability at 10 µM: 99.7%
SF-539
  viability at 10 µM: 102%
UO-31
  viability at 10 µM: 89.4%
MDA-MB-435
  viability at 10 µM: 109%

## CCOc1cc2c(c(OCC)c1OCC)C(=O)NC1C2CC(O)C(O)C1O (racemic)
NCI-H522
  viability at 10 µM: 89.2%
MCF7
  viability at 10 µM: 95.6%
U-251
  viability at 10 µM: 101%
A549
  viability at 10 µM: 95.8%
SF-268
  viability at 10 µM: 99.5%
OVCAR-5
  viability at 10 µM: 104%
SNB-75
  viability at 10 µM: 93%
DU-145
  viability at 10 µM: 113%
SK-OV-3
  viability at 10 µM: 105%
TK-10
  viability at 10 µM: 98.5%
OVCAR-3
  viability at 10 µM: 104%
LOX IMVI
  viability at 10 µM: 98.7%
HL-60(TB)
  viability at 10 µM: 96.1%
KM12
  viability at 10 µM: 103%
PC-3
  viability at 10 µM: 89.4%
NCI-H322M
  viability at 10 µM: 97.8%
SW-620
  viability at 10 µM: 107%
HOP-92
  viability at 10 µM: 82.8%
OVCAR-4
  viability at 10 µM: 105%
ACHN
  viability at 10 µM: 105%
NCI-H23
  viability at 10 µM: 101%
MOLT-4
  viability at 10 µM: 99.2%
UACC-62
  viability at 10 µM: 101%
M14
  viability at 10 µM: 103%
SN12C
  viability at 10 µM: 108%
HCT-15
  viability at 10 µM: 104%
SNB-19
  viability at 10 µM: 104%
T47D
  viability at 10 µM: 100%
HT-29
  viability at 10 µM: 104%
SF-539
  viability at 10 µM: 97%
UO-31
  viability at 10 µM: 88.4%
MDA-MB-435
  viability at 10 µM: 104%

## O=C1NC2C(CC(O)C(O)C2O)c2cc3c(c(O)c21)OCO3 (racemic)
NCI-H522
  viability at 10 µM: -32.6%
MCF7
  viability at 10 µM: 1.73%
U-251
  viability at 10 µM: -10.5%
A549
  viability at 10 µM: -8.4%
SF-268
  viability at 10 µM: -4.43%
OVCAR-5
  viability at 10 µM: -13.4%
SNB-75
  viability at 10 µM: -25.3%
DU-145
  viability at 10 µM: -19.1%
SK-OV-3
  viability at 10 µM: -11.2%
TK-10
  viability at 10 µM: -12.6%
OVCAR-3
  viability at 10 µM: -10.8%
LOX IMVI
  viability at 10 µM: -48.8%
HL-60(TB)
  viability at 10 µM: -37.8%
KM12
  viability at 10 µM: -11.5%
PC-3
  viability at 10 µM: -8.66%
NCI-H322M
  viability at 10 µM: -14.7%
SW-620
  viability at 10 µM: -0.05%
HOP-92
  viability at 10 µM: -19%
OVCAR-4
  viability at 10 µM: -23.7%
ACHN
  viability at 10 µM: -45.5%
NCI-H23
  viability at 10 µM: -14.9%
MOLT-4
  viability at 10 µM: -6.14%
UACC-62
  viability at 10 µM: -48.4%
M14
  viability at 10 µM: -81.7%
SN12C
  viability at 10 µM: -18.4%
HCT-15
  viability at 10 µM: 1.81%
SNB-19
  viability at 10 µM: -8.68%
T47D
  viability at 10 µM: -8.46%
HT-29
  viability at 10 µM: -14.9%
SF-539
  viability at 10 µM: -29.7%
UO-31
  viability at 10 µM: -31%
MDA-MB-435
  viability at 10 µM: -42.2%
